Measurements reported in PubChem BioAssay (NCI).
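Five compound concentrations were applied to cells in 96-well plates for 48 hours; endpoints were derived by simple linear interpolation of the resulting dose-response curve. At the TGI there is no net growth.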

How the values were obtained:
Test in all cases: NCI tumour cell line growth inhibition, 48 h
[1] = test system: 786-0 renal
[2] = test system: A498 renal
[3] = test system: A549 NSCLC
[4] = test system: ACHN renal
[5] = test system: BT-549 breast
[6] = test system: CAKI-1 renal
[7] = test system: COLO 205 colon
[8] = test system: DU-145 prostate
[9] = test system: EKVX NSCLC
[10] = test system: HCC-2998 colon
[11] = test system: HCT-116 colon
[12] = test system: HCT-15 colon
[13] = test system: HL-60(TB) leukemia
[14] = test system: HOP-62 NSCLC
[15] = test system: HOP-92 NSCLC
[16] = test system: HS 578T breast
[17] = test system: HT29 colon
[18] = test system: IGROV1 ovarian
[19] = test system: K-562 leukemia
[20] = test system: KM12 colon
[21] = test system: LOX IMVI melanoma
[22] = test system: M14 melanoma
[23] = test system: MCF7 breast
[24] = test system: MDA-MB-231 breast
[25] = test system: MDA-MB-435
[26] = test system: MDA-N
[27] = test system: MOLT-4 leukemia
[28] = test system: NCI-H226 lung
[29] = test system: NCI-H23 lung
[30] = test system: NCI-H460 lung
[31] = test system: NCI-H522 lung
[32] = test system: NCI/ADR-RES ovarian
[33] = test system: OVCAR-3 ovarian
[34] = test system: OVCAR-4 ovarian
[35] = test system: OVCAR-5 ovarian
[36] = test system: OVCAR-8 ovarian
[37] = test system: PC-3 prostate
[38] = test system: RPMI-8226 leukemia
[39] = test system: RXF 393 renal
[40] = test system: SF-268 CNS
[41] = test system: SF-295 CNS
[42] = test system: SF-539 CNS
[43] = test system: SK-MEL-2 melanoma
[44] = test system: SK-MEL-28 melanoma
[45] = test system: SK-MEL-5 melanoma
[46] = test system: SK-OV-3 ovarian
[47] = test system: SN12C renal
[48] = test system: SNB-19 CNS
[49] = test system: SNB-75 CNS
[50] = test system: SR leukemia
[51] = test system: SW-620 colon
[52] = test system: T-47D breast
[53] = test system: TK-10 renal
[54] = test system: U251 CNS
[55] = test system: UACC-257 melanoma
[56] = test system: UACC-62 melanoma
[57] = test system: UO-31 renal
[58] = test system: MALME-3M melanoma
[59] = test system: CCRF-CEM leukemia
[60] = test system: DMS 114 small cell lung
[61] = test system: KM20L2 colon
[62] = test system: LXFL 529 NSCLC
[63] = test system: M19-MEL melanoma
[64] = test system: SNB-78 CNS

OC1(C(O)(c2ccc(-c3ccccc3)cc2)c2ccc(-c3ccccc3)cc2)CCCCC1
TGI [1]: > 100 µM
TGI [2]: > 100 µM
TGI [3]: > 100 µM
TGI [4]: > 100 µM
TGI [5]: > 100 µM
TGI [6]: > 100 µM
TGI [7]: > 100 µM
TGI [8]: > 100 µM
TGI [9]: > 100 µM
TGI [10]: > 100 µM
TGI [11]: > 100 µM
TGI [12]: > 100 µM
TGI [13]: > 100 µM
TGI [14]: > 100 µM
TGI [15]: > 100 µM
TGI [16]: > 100 µM
TGI [17]: > 100 µM
TGI [18]: > 100 µM
TGI [19]: > 100 µM
TGI [20]: > 100 µM
TGI [21]: > 100 µM
TGI [22]: > 100 µM
TGI [23]: > 100 µM
TGI [24]: > 100 µM
TGI [25]: > 100 µM
TGI [26]: > 100 µM
TGI [27]: > 100 µM
TGI [28]: > 100 µM
TGI [29]: > 100 µM
TGI [30]: > 100 µM
TGI [31]: > 100 µM
TGI [32]: > 100 µM
TGI [33]: > 100 µM
TGI [34]: > 100 µM
TGI [35]: > 100 µM
TGI [36]: > 100 µM
TGI [37]: > 100 µM
TGI [38]: > 100 µM
TGI [39]: > 100 µM
TGI [40]: > 100 µM
TGI [41]: > 100 µM
TGI [42]: > 100 µM
TGI [43]: > 100 µM
TGI [44]: > 100 µM
TGI [45]: > 100 µM
TGI [46]: > 100 µM
TGI [47]: > 100 µM
TGI [48]: > 100 µM
TGI [49]: > 100 µM
TGI [50]: > 100 µM
TGI [51]: > 100 µM
TGI [52]: > 100 µM
TGI [53]: > 100 µM
TGI [54]: > 100 µM
TGI [55]: > 100 µM
TGI [56]: > 100 µM
TGI [57]: > 100 µM

C=C(C)[C@@H]1CC[C@]2(C(=O)OC3OC(COC4OC(CO)C(OC5OC(C)C(O)C(O)C5O)C(O)C4O)C(O)C(O)C3O)CC[C@]3(C)[C@H](CC[C@@H]4[C@@]5(C)CC[C@H](O)[C@@](C)(CO)[C@@H]5CC[C@]43C)[C@@H]12 (some centres not stated)
TGI [1]: > 10 µM
TGI [2]: > 10 µM
TGI [3]: > 10 µM
TGI [4]: > 10 µM
TGI [5]: > 8.43 µM
TGI [6]: > 9.66 µM
TGI [7]: 3.2 µM
TGI [8]: > 10 µM
TGI [9]: > 10 µM
TGI [10]: > 6.91 µM
TGI [11]: > 6.75 µM
TGI [12]: > 9.68 µM
TGI [13]: 1.13 µM
TGI [14]: > 10 µM
TGI [15]: > 6.7 µM
TGI [16]: > 9.62 µM
TGI [17]: > 10 µM
TGI [18]: > 10 µM
TGI [19]: > 6.45 µM
TGI [20]: > 10 µM
TGI [21]: > 8.27 µM
TGI [22]: > 10 µM
TGI [58]: > 10 µM
TGI [23]: > 10 µM
TGI [24]: > 9.18 µM
TGI [25]: > 10 µM
TGI [26]: > 10 µM
TGI [28]: > 10 µM
TGI [29]: > 5.57 µM
TGI [30]: 5.11 µM
TGI [31]: 9.56 µM
TGI [32]: > 10 µM
TGI [33]: 5.16 µM
TGI [34]: > 10 µM
TGI [35]: > 10 µM
TGI [36]: > 10 µM
TGI [37]: > 8.45 µM
TGI [38]: > 5.92 µM
TGI [39]: > 10 µM
TGI [40]: 9.89 µM
TGI [41]: > 8.59 µM
TGI [42]: > 7.72 µM
TGI [43]: 6.22 µM
TGI [44]: > 10 µM
TGI [45]: > 8.46 µM
TGI [46]: > 8.62 µM
TGI [47]: 9.79 µM
TGI [48]: > 10 µM
TGI [49]: > 10 µM
TGI [50]: > 4.48 µM
TGI [51]: > 10 µM
TGI [52]: > 10 µM
TGI [53]: > 10 µM
TGI [54]: > 10 µM
TGI [55]: > 10 µM
TGI [56]: 4.76 µM
TGI [57]: > 10 µM

CCO[C@@H]1OC(=O)[C@](C)(C(C)=O)[C@@H]1C
TGI [2]: > 100 µM
TGI [4]: > 100 µM
TGI [59]: 89.5 µM
TGI [7]: > 100 µM
TGI [60]: > 100 µM
TGI [13]: 79.6 µM
TGI [14]: > 100 µM
TGI [15]: > 100 µM
TGI [17]: > 100 µM
TGI [18]: > 100 µM
TGI [19]: > 100 µM
TGI [20]: > 100 µM
TGI [61]: > 100 µM
TGI [62]: > 100 µM
TGI [22]: > 100 µM
TGI [63]: > 100 µM
TGI [27]: > 100 µM
TGI [29]: 60.1 µM
TGI [30]: > 100 µM
TGI [31]: > 100 µM
TGI [33]: > 100 µM
TGI [34]: > 100 µM
TGI [35]: > 100 µM
TGI [38]: > 100 µM
TGI [39]: > 100 µM
TGI [40]: 67.8 µM
TGI [41]: > 100 µM
TGI [42]: > 100 µM
TGI [43]: > 100 µM
TGI [44]: > 100 µM
TGI [46]: > 100 µM
TGI [48]: > 100 µM
TGI [49]: 98.4 µM
TGI [64]: > 100 µM
TGI [50]: > 100 µM
TGI [54]: > 100 µM
TGI [55]: > 100 µM
TGI [56]: > 100 µM
TGI [57]: > 100 µM

CCC1(O)CC(O)c2c(O)c3c(c(O)c2C1C(=O)OC)C(=O)c1cccc(O)c1C3=O (configuration not stated)
TGI [1]: 14.3 µM
TGI [2]: 18.4 µM
TGI [3]: 14.2 µM
TGI [4]: 15.1 µM
TGI [5]: 34.8 µM
TGI [6]: 15.3 µM
TGI [59]: 9.71 µM
TGI [7]: 7.65 µM
TGI [8]: 21.8 µM
TGI [9]: 6.65 µM
TGI [10]: 21.4 µM
TGI [11]: 11.7 µM
TGI [12]: 21.1 µM
TGI [13]: 6.07 µM
TGI [14]: 16.6 µM
TGI [15]: 32.1 µM
TGI [16]: 24.5 µM
TGI [17]: 14.1 µM
TGI [18]: 12.1 µM
TGI [19]: > 21.8 µM
TGI [20]: 17.4 µM
TGI [21]: 9.92 µM
TGI [22]: 14.1 µM
TGI [58]: 7.08 µM
TGI [23]: 16.9 µM
TGI [24]: 13 µM
TGI [25]: > 100 µM
TGI [26]: 47.1 µM
TGI [27]: 2.19 µM
TGI [28]: 18.1 µM
TGI [29]: 24.4 µM
TGI [30]: 14.2 µM
TGI [31]: 4.96 µM
TGI [32]: 3.28 µM
TGI [33]: 8.63 µM
TGI [34]: 13.9 µM
TGI [35]: 21 µM
TGI [36]: 5.88 µM
TGI [37]: 13 µM
TGI [38]: > 23.1 µM
TGI [39]: 23.5 µM
TGI [40]: 16.2 µM
TGI [41]: 10.7 µM
TGI [42]: 14.8 µM
TGI [43]: 10.2 µM
TGI [44]: 75.4 µM
TGI [45]: 6.39 µM
TGI [46]: > 36.1 µM
TGI [47]: 17.3 µM
TGI [48]: 20.9 µM
TGI [49]: 18.5 µM
TGI [50]: 5.91 µM
TGI [51]: > 48.2 µM
TGI [52]: 32.8 µM
TGI [53]: 24.3 µM
TGI [54]: 16.6 µM
TGI [55]: 21.8 µM
TGI [56]: 12.4 µM
TGI [57]: 13.2 µM
